Measured values as given in publication PMC4501059, “Responding to the challenge of untreatable gonorrhea: ETX0914, a first-in-class agent with a distinct mechanism-of-action against bacterial Type II topoisomerases” (Scientific Reports, 2015).
Converted amounts (≈) assume the structure as drawn.

How the values were obtained:
[1] = Single dose pharmacokinetics, rat; assay type: in vivo; conditions: Han-Wister rat (male)
Method: (§1) AZD0914 was analyzed in mouse, rat, dog, monkey plasma using a qualified method which was later validated for human plasma analysis. The validated human method is described below and is representative of the approach taken in other species. AZD0914 was determined in human plasma prepared with K2EDTA as an anticoagulant. AZD0914 and an internal standard (^13C2, ^15N2 AZD0914) were extracted from plasma with tert- butyl methyl ether. After evaporating to dryness under a stream of nitrogen, the residue was reconstituted and quantitated by reverse phase HPLC-MS/MS against a standard curve from 1.00 to 5000 ng/ml. Separation was achieved using a gradient which went from 55% to 85% methanol:acetonitrile (1:1) containing 0.2% formic acid as mobile phase B and 0.2% formic acid in water as mobile phase A at a flow rate of 0.60 ml/min through a Phenomonex Gemini C18 column (50 x 2.0 mm column, […]) heated using a Shimadzu CTO-20AC set to 40 °C. AZD0914 was detected in multiple reaction monitoring (MRM) mode by positive ion electrospray ionization using a Sciex API5500 (Toronto, Canada) mass spectrometer. The ion spray voltage was set to 5500 V and turboionspray temperature was 650 °C. AZD0914 was quantitated using the MRM transition 488.2 → 348.2 using a collision energy of 29 eV. The internal standard, (^13C2, ^15N2 AZD0914), was monitored using identical conditions except for the MRM transition of 492.2 → 348.2.

mouse lymphoma cells = assay: in vitro mouse micronucleus aberration assay (MMA); assay type: cell-based; conditions: in vitro
Method: In vitro toxicology. Experiments for assessing micronuclei in mouse lymphoma cells^19 myeloid cytotoxicity^20 and erythroid cytotoxicity^21 were performed as described previously.

S. aureus ARC516 = assay: MIC (CLSI broth microdilution); assay type: cell-based
S. pneumoniae ATCC49619 = assay: MIC (CLSI broth microdilution); assay type: cell-based
[2] = hepatocyte intrinsic clearance; assay type: in vitro ADME; conditions: male, Beagle, dog hepatocytes
Excerpt: (§2) Supplement srep11827-s1.doc, table 4 | column: Beagle dog (male)

[3] = plasma protein binding, rat; assay type: in vitro ADME; conditions: in vitro at 1-50 µM
Excerpt: Supplement srep11827-s1.doc, table 4 | column: Han-Wister rat (male)

Streptococcus agalactiae = test system: Streptococcus agalactiae; design: method as in ref 2 (supplement); conditions: 441 tested; ref 2 (supplement); cited from earlier work
Streptococcus pneumoniae = test system: Streptococcus pneumoniae; design: method as in ref 2 (supplement); conditions: 2324 tested; ref 2 (supplement); cited from earlier work
USA300 NRS384 = assay: MIC (modal, CLSI broth microdilution); assay type: cell-based, S. aureus; conditions: Staphylococcus aureus, read-out: Modal MIC
Ureaplasma spp. = test system: Ureaplasma spp.; design: method as in ref 3 (supplement); conditions: 21 tested; ref 3 (supplement); cited from earlier work
Dog pharmacokinetics = assay type: in vivo, Beagle dog
Method: as §1

[4] = test system: S. pneumoniae ARC2205 (ERQR); assay: MIC (CLSI broth microdilution); assay type: cell-based
[5] = plasma protein binding, dog; assay type: in vitro ADME; conditions: in vitro at 1-50 µM
Excerpt: as §2

S. aureus = conditions: 4X MIC, various strains; cited from earlier work
[6] = Single dose pharmacokinetics, mouse; assay type: in vivo, CD-1 mouse
Method: as §1

Neisseria gonorrhoeae = conditions: cited from earlier work
Staphylococcus aureus = conditions: cited from earlier work
[7] = hepatocyte intrinsic clearance; conditions: human, hepatocytes
[8] = Single dose pharmacokinetics, monkey; assay type: in vivo; conditions: plasma, Cynomologus monkey (male)
Method: as §1

[9] = 473 tested, ref 4-6 (supplement)
[10] = 11640 tested, ref 2 (supplement)

Question: For `C[C@@H]1CN2c3c(cc4c(N5C(=O)OC[C@@H]5C)noc4c3F)CC3(C(=O)NC(=O)NC3=O)[C@H]2[C@H](C)O1` [ETX0914], which Ka [1] is on record?
Answer: The Ka was 1.6 h⁻¹.

Question: What about the clearance ([1]; plasma, IV 10 mg/kg, read-out: Clp (IV)) of the same compound?
Answer: Its clearance is 22 mL/min/kg.

Question: And the half-life ([1]; plasma, IV 10 mg/kg, read-out: T1/2 (IV) (converted))?
Answer: The half-life was 0.7 h.

Question: What about the Vd ([1]; plasma, IV 10 mg/kg, read-out: Vss (IV)) of the same compound?
Answer: Its Vd is 1.2 L/kg.

Question: What about the bioavailability ([1]; plasma, IV 10 / PO 10 mg/kg) of the same compound?
Answer: The bioavailability was 34%.

Question: And the Cmax ([1]; plasma, PO 10 mg/kg)?
Answer: The Cmax was 1.7 µM.

Question: What about the half-life ([1]; plasma, PO 10 mg/kg, read-out: T1/2 (PO) (converted)) of the same compound?
Answer: The half-life was 1.8 h.

Question: And the “Micronucleus NOEL” value (mouse lymphoma cells)?
Answer: The value was over 400 µM.

Question: What about the “MIC: S. aureus ARC516” value (S. aureus ARC516) of the same compound?
Answer: Its value is 0.125 µg/mL (≈ 0.256 µM).

Question: What about the MIC (S. aureus ARC516; Staphylococcus aureus, MSSA, read-out: Modal MIC) of the same compound?
Answer: The MIC was 0.0625 µg/mL (≈ 0.128 µM).

Question: What about the “MIC: S. pneumoniae ATCC49619” value (S. pneumoniae ATCC49619) of the same compound?
Answer: Its value is 0.125 µg/mL (≈ 0.256 µM).

Question: And the hepatocyte CLint at 1 µM [2]?
Answer: Its hepatocyte CLint at 1 µM is 3.8 µL/min/1e6 cells.

Question: And the “PPB (%free)” value [3]?
Answer: The value was 19.1±1.1 %free.

Question: What about the MIC90 (Streptococcus agalactiae) of the same compound?
Answer: Its MIC90 is 0.25^2 µg/ml.

Question: And the “MIC Range” value (Streptococcus agalactiae)?
Answer: The value was 0.03 to 0.5 µg/mL.

Question: And the MIC90 (Streptococcus pneumoniae)?
Answer: The MIC90 was 0.25^2 µg/ml.

Question: What about the “MIC Range” value (Streptococcus pneumoniae) of the same compound?
Answer: The value was at most 0.015 to 0.5 µg/mL.

Question: What about the MIC (USA300 NRS384) of the same compound?
Answer: The MIC was 0.25 µg/mL (≈ 0.513 µM).

Question: What about the MIC90 (Ureaplasma spp.) of the same compound?
Answer: The MIC90 was 1.0^3 µg/ml.

Question: And the “MIC Range” value (Ureaplasma spp.)?
Answer: The value was 0.125 to 2 µg/mL.

Question: And the Ka (Dog pharmacokinetics; Beagle dog (male))?
Answer: The Ka was 1.2 h⁻¹.

Question: What about the “Dog F” value (Dog pharmacokinetics; beagle, dog, plasma) of the same compound?
Answer: Its value is 71%.

Question: And the clearance (Dog pharmacokinetics; beagle, dog, plasma)?
Answer: The clearance was 4 mL/min/kg.

Question: What about the clearance (Dog pharmacokinetics; plasma, Beagle dog (male), IV 2.5 mg/kg, read-out: Clp (IV)) of the same compound?
Answer: Its clearance is 4 mL/min/kg.

Question: What about the half-life (Dog pharmacokinetics; plasma, Beagle dog (male), IV 2.5 mg/kg, read-out: T1/2 (IV) (converted)) of the same compound?
Answer: Its half-life is 3 h.

Question: And the Vd (Dog pharmacokinetics; plasma, Beagle dog (male), IV 2.5 mg/kg, read-out: Vss (IV))?
Answer: Its Vd is 0.8 L/kg.

Question: What about the bioavailability (Dog pharmacokinetics; plasma, Beagle dog (male), IV 2.5 / PO 5 mg/kg) of the same compound?
Answer: Its bioavailability is 71%.

Question: And the Cmax (Dog pharmacokinetics; plasma, Beagle dog (male), PO 5 mg/kg)?
Answer: Its Cmax is 7.1 µM.

Question: What about the half-life (Dog pharmacokinetics; plasma, Beagle dog (male), PO 5 mg/kg, read-out: T1/2 (PO) (converted)) of the same compound?
Answer: The half-life was 3.1 h.

Question: What about the “MIC: S. pneumoniae ARC2205 (ERQR)” value [4] of the same compound?
Answer: Its value is 0.125 µg/mL (≈ 0.256 µM).

Question: What about the “PPB (%free)” value [5] of the same compound?
Answer: The value was 18.4±0.3 %free.

Question: What about the frequency of resistance (S. aureus) of the same compound?
Answer: The frequency of resistance was < 1.1 × 10^−9.

Question: What about the clearance ([6]; CD-1, plasma, mouse, ABT pre-dosing, read-out: CLp after pre-dosing with 1-aminobenzotriazole (ABT)) of the same compound?
Answer: The clearance was 15 mL/min/kg.

Question: And the Ka ([6]; CD-1 mouse (female))?
Answer: The Ka was 1.7 h⁻¹.

Question: What about the “lowering of CLp by ABT pre-dosing” value ([6]; mouse) of the same compound?
Answer: The value was about 5 fold.

Question: What about the clearance ([6]; plasma, CD-1 mouse (female), IV 3 mg/kg, read-out: Clp (IV)) of the same compound?
Answer: Its clearance is 70 mL/min/kg.

Question: And the half-life ([6]; plasma, CD-1 mouse (female), IV 3 mg/kg, read-out: T1/2 (IV) (converted))?
Answer: The half-life was 0.5 h.

Question: What about the Vd ([6]; plasma, CD-1 mouse (female), IV 3 mg/kg, read-out: Vss (IV)) of the same compound?
Answer: The Vd was 3.6 L/kg.

Question: And the bioavailability ([6]; plasma, CD-1 mouse (female), IV 3 / PO 10 mg/kg)?
Answer: The bioavailability was 46%.

Question: And the Cmax ([6]; plasma, CD-1 mouse (female), PO 10 mg/kg)?
Answer: Its Cmax is 1.7 µM.

Question: And the half-life ([6]; plasma, CD-1 mouse (female), PO 10 mg/kg, read-out: T1/2 (PO) (converted))?
Answer: The half-life was 1.6 h.

Question: What about the MIC90 (Neisseria gonorrhoeae; [9]) of the same compound?
Answer: Its MIC90 is 0.125^4-6 µg/ml.

Question: What about the “MIC Range” value (Neisseria gonorrhoeae; [9]) of the same compound?
Answer: The value was 0.004 to 0.25 µg/mL.

Question: What about the “MIC90, gonococcal infection (N. gonorrhoeae)” value (Neisseria gonorrhoeae; Table 2, first entry of the cell (ciprofloxacin: 250 mg UID line)) of the same compound?
Answer: The value was 0.12 µg/mL (≈ 0.246 µM).

Question: And the MIC90 (Staphylococcus aureus; [10])?
Answer: Its MIC90 is 0.25^2 µg/ml.

Question: And the “MIC Range” value (Staphylococcus aureus; [10])?
Answer: The value was at most 0.008 to 0.5 µg/mL.

Question: And the “MIC90, skin infection (S. aureus)” value (Staphylococcus aureus; Table 2)?
Answer: Its value is 0.25 µg/mL (≈ 0.513 µM).

Question: What about the hepatocyte CLint [7] of the same compound?
Answer: The hepatocyte CLint was 1 µL/min/1e6 cells.

Question: What about the clearance ([8]; IV 2.5 mg/kg, read-out: Clp (IV)) of the same compound?
Answer: The clearance was 12 mL/min/kg.

Question: What about the half-life ([8]; IV 2.5 mg/kg, read-out: T1/2 (IV) (converted)) of the same compound?
Answer: Its half-life is 1.6 h.

Question: What about the Vd ([8]; IV 2.5 mg/kg, read-out: Vss (IV)) of the same compound?
Answer: The Vd was 1.3 L/kg.

Question: And the bioavailability ([8]; IV 2.5 / PO 5 mg/kg)?
Answer: The bioavailability was 58%.

Question: And the Cmax ([8]; PO 5 mg/kg)?
Answer: The Cmax was 6.5 µM.

Question: What about the half-life ([8]; PO 5 mg/kg, read-out: T1/2 (PO) (converted)) of the same compound?
Answer: The half-life was 1.6 h.
